Test results from patent US6881741B2 (ViroChem Pharma Inc., priority 2001, dated 2005).
pIC50: −log10 of the molar value. Where a name gives a salt, the structure may show the parent alone.

These compounds were tested against recombinant HCV NS5B (HCV RNA-dependent RNA polymerase) (Hepatitis C virus genotype 1b, UniProt P26663) (assay: biochemical). Conditions: HCV polymerase activity, list of compounds of Example 27; read-out: IC50 (polymerase activity).
Chain of recombinant HCV NS5B (HCV RNA-dependent RNA polymerase) (P26663 2420-3010 limits assumed): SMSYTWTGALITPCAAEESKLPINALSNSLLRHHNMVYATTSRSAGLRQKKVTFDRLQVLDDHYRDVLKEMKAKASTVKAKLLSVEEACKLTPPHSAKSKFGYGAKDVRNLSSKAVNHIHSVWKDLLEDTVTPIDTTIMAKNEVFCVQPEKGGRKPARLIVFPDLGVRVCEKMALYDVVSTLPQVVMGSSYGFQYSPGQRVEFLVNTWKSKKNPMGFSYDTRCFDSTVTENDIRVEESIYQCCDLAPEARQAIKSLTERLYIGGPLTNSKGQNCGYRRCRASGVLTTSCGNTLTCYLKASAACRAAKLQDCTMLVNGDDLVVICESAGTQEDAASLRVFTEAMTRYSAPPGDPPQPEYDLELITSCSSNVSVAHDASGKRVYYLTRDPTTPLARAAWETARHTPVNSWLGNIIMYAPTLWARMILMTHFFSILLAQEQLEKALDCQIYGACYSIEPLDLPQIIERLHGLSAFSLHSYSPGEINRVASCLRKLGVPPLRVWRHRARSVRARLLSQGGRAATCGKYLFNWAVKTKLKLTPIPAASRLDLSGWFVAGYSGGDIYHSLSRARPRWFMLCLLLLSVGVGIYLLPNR

Row | Compound | pIC50
1 | CC1(C)OCC(N(C(=O)c2ccc(Cl)cc2Cl)c2cc(-c3ccccc3)sc2C(=O)O)CO1 [Compound 535, 3-[(2,4-DICHLORO-BENZOYL)-(2,2- DIMETHYL-[1,3]DIOXAN-5-YL)-AMINO]-5- PHENYL-THIOPHENE-2-CARBOXYLIC ACID] | > 5.30
2 | O=C(O)c1sc(-c2ccccc2)cc1N(Cc1cccc(Cl)c1)C(=O)C1CC1 [Compound 480, 3-[(3-CHLORO-BENZYL)- CYCLOPROPANECARBONYL-AMINO]-5- PHENYL-THIOPHENE-2-CARBOXYLIC ACID] | 4.70 to 5.30
3 | Cc1ccc(C(=O)N(c2cc(-c3ccccc3)sc2C(=O)O)C(C)C)c(C(N)=O)c1 [Compound 474, 3-[(2-CARBAMOYL-4-METHYL-BENZOYL)- ISOPROPYL-AMINO]-5-PHENYL- THIOPHENE-2-CARBOXYLIC ACID] | 4.70 to 5.30
4 | O=C(O)c1sc(-c2ccccc2)cc1N(Cc1ccc(C(F)(F)F)cc1)C(=O)C1CCC1 [Compound 414, 3-[CYCLOBUTANECARBONYL-(4- TRIFLUOROMETHYL-BENZYL)-AMINO]-5- PHENYL-THIOPHENE-2-CARBOXYLIC ACID] | 4.70 to 5.30
5 | O=C(NC1CCC(N(C(=O)c2ccc(Cl)cc2Cl)c2cc(-c3ccccc3)sc2C(=O)O)CC1)OCc1ccccc1 (centres unmarked) [Compound 512, 3-[(4-BENZYLOXYCARBONYLAMINO- CYCLOHEXYL)-(2,4-DICHLORO- BENZOYL)-AMINO]-5-PHENYL- THIOPHENE-2-CARBOXYLIC ACID] | > 5.30
6 | CC1CCC(C(=O)N(c2cc(-c3ccc(C(F)(F)F)cc3)sc2C(=O)O)C(C)C)CC1 (centres unmarked) [Compound 575, 3-[ISOPROPYL-(4-METHYL- CYCLOHEXANECARBONYL)-AMINO]-5-(4- TRIFLUOROMETHYL-PHENYL)- THIOPHENE-2-CARBOXYLIC ACID] | > 5.30
7 | CC(C)N(C(=O)c1ccc(Cl)cc1Cl)c1cc(-c2ccc(-c3nnn[nH]3)cc2)sc1C(=O)O [Compound 430, 3-[(2,4-DICHLORO-BENZOYL)- ISOPROPYL-AMINO]-5-[4-(1#H!- TETRAZOL-5-YL)-PHENYL]-THIOPHENE- 2-CARBOXYLIC ACID] | > 5.30
8 | Cc1cccc(CN(C(=O)CC2CCCC2)c2cc(-c3ccccc3)sc2C(=O)O)c1 [Compound 445, 3-[(2-CYCLOPENTYL-ACETYL)-(3- METHYL-BENZYL)-AMINO]-5-PHENYL- THIOPHENE-2-CARBOXYLIC ACID] | > 5.30
9 | O=C(O)c1sc(-c2ccccc2)cc1N(Cc1ccc(Cl)cc1)C(=O)C1CCC1 [Compound 461, 3-[(4-CHLORO-BENZYL)- CYCLOBUTANECARBONYL-AMINO]-5- PHENYL-THIOPHENE-2-CARBOXYLIC ACID] | 4.70 to 5.30
10 | CC(C)N(C(=O)c1ccc(Cl)cc1Cl)c1cc(C2=CCN(C(=O)OCc3ccccc3)CC2)sc1C(=O)O [Compound 504, 4-(5-CARBOXY-4-[(2,4-DICHLORO- BENZOYL)-ISOPROPYL-AMINO]- THIOPHEN-2-YL)-3,6-DIHYDRO-2#H!- PYRIDINE-1-CARBOXYLIC ACID BENZYL ESTER] | > 5.30

Same assay, conditions: IC50

Row | Compound | pIC50
11 | CC1CCC(C(=O)N(c2cc(-c3ccccc3)sc2C(=O)O)C(C)C)CC1 (centres unmarked) [Compound 317, 3-[ISOPROPYL-(4-METHYL- CYCLOHEXANECARBONYL)-AMINO]-5- PHENYL-THIOPHENE-2-CARBOXYLIC ACID] | > 5.30

Same assay, conditions: related polymerase activity (Example 27 list); read-out: IC50

Row | Compound | pIC50
12 | Cc1cccc(C)c1N1CCN(C(=O)Nc2cc(-c3ccccc3)sc2C(=O)O)CC1 [Compound 158, 3-{[4-(2,6-DIMETHYL-PHENYL)-PIPERAZINE-1-CARBONYL]-AMINO}-5-PHENYL-THIOPHENE-2-CARBOXYLIC ACID] | < 4.70
13 | CC1CCC(C(=O)N(c2cc(-c3cccc(C(F)(F)F)c3)sc2C(=O)O)C(C)C)CC1 (centres unmarked) [Compound 381, 3-[ISOPROPYL-(4-METHYL- CYCLOHEXANECARBONYL)-AMINO]-5-(3- TRIFLUOROMETHYL-PHENYL)- THIOPHENE-2-CARBOXYLIC ACID] | > 5.30
14 | Cc1ccccc1S(=O)(=O)Nc1cc(-c2cc3ccccc3s2)sc1C(=O)O [Compound 230, 5-BENZO[B]THIOPHEN-2-YL-3-(TOLUENE-2-SULFONYLAMINO)-THIOPHENE-2-CARBOXYLIC ACID] | > 5.30
15 | O=C(O)c1sc(-c2ccc(Cl)cc2)cc1NS(=O)(=O)c1ccccn1 [Compound 116, 5-(4-CHLORO-PHENYL)-3-(PYRIDINE-2-SULFONYLAMINO)-THIOPHENE-2-CARBOXYLIC ACID] | 4.70 to 5.30
16 | Cc1ccccc1S(=O)(=O)Nc1cc(-c2ccccc2O)sc1C(=O)O [Compound 217, 5-(2-HYDROXY-PHENYL)-3-(TOLUENE-2-SULFONYLAMINO)-THIOPHENE-2-CARBOXYLIC ACID] | 4.70 to 5.30
17 | CCOC(=O)c1ccccc1-c1cc(NS(=O)(=O)c2ccccc2C)c(C(=O)O)s1 [Compound 103, 5-(2-ETHOXYCARBONYL-PHENYL)-3-(TOLUENE-2-SULFONYLAMINO)-THIOPHENE-2-CARBOXYLIC ACID] | 4.70 to 5.30
18 | Cc1ccc(-c2cc(NS(=O)(=O)c3ccccc3C)c(C(=O)O)s2)nc1 [Compound 184, 5-(5-METHYL-PYRIDIN-2-YL)-3-(TOLUENE-2-SULFONYLAMINO)-THIOPHENE-2-CARBOXYLIC ACID] | > 5.30
19 | O=C(O)c1sc(-c2ccccc2)cc1NC(=O)N1CCC(n2c(=O)[nH]c3ccccc32)CC1 [Compound 113, 3-{[4-(2-OXO-2,3-DIHYDRO-BENZOIMIDAZOL-1-YL)-PIPERIDINE-1-CARBONYL]-AMINO]-5-PHENYL-THIOPHENE-2-CARBOXYLIC ACID] | < 4.70
20 | N#Cc1ccc(-c2cc(NS(=O)(=O)c3ccc(Cl)cc3)c(C(=O)O)s2)cc1 [Compound 289, 3-(4-CHLORO-BENZENESULFONYLAMINO)-5-(4-CYANO-PHENYL)-THIOPHENE-2-CARBOXYLIC ACID] | > 5.30
21 | Cc1ccccc1S(=O)(=O)Nc1cc(/C=C/c2ccc(Cl)cc2)sc1C(=O)O [Compound 134, 5-[2-(4-CHLORO-PHENYL)-VINYL]-3-(TOLUENE-2-SULFONYLAMINO)-THIOPHENE-2-CARBOXYLIC ACID] | 4.70 to 5.30
22 | O=C(O)c1cc(S(=O)(=O)Nc2cc(-c3ccccc3)sc2C(=O)O)c(F)cc1Cl [Compound 221, 3-(5-CARBOXY-4-CHLORO-2-FLUORO-BENZENESULFONYLAMINO)-5-PHENYL-THIOPHENE-2-CARBOXYLIC ACID] | < 4.70
23 | CC(C)N(C(=S)c1ccc(Cl)cc1Cl)c1cc(-c2ccccc2)sc1C(=O)O [Compound 297, 3-[(2,4-DICHLORO-THIOBENZOYL)-ISOPROPYL-AMINO]-5-PHENYL-THIOPHENE-2-CARBOXYLIC ACID] | > 5.30
24 | CC(C)N(C(=O)c1ccc(Cl)cc1Cl)c1cc(-c2ccc(F)cc2)sc1C(=O)O [Compound 356, 3-[(2,4-DICHLORO-BENZOYL)- ISOPROPYL-AMINO]-5-(4-FLUORO- PHENYL)-THIOPHENE-2-CARBOXYLIC ACID] | > 5.30
25 | CN(C(=O)c1ccc(F)cc1F)c1cc(-c2ccccc2)sc1C(=O)O [Compound 78, 3-[(2,4-DIFLUORO-BENZOYL)-METHYL-AMINO]-5-PHENYL-THIOPHENE-2-CARBOXYLIC ACID] | 4.70 to 5.30
26 | O=C(O)c1sc(-c2ccccc2)cc1NC(=O)N1CCN(Cc2ccc(Cl)cc2)CC1 [Compound 183, 3-{[4-(4-CHLORO-BENZYL)-PIPERAZINE-1-CARBONYL]-AMINO}-5-PHENYL-THIOPHENE-2-CARBOXYLIC ACID HYDROCHLORIDE] | 4.70 to 5.30
27 | Cc1ccc(C(=O)N(c2cc(-c3ccccc3)sc2C(=O)O)C(C)C)cc1 [Compound 211, 3-[ISOPROPYL-(4-METHYL-BENZOYL)-AMINO]-5-PHENYL-THIOPHENE-2-CARBOXYLIC ACID] | > 5.30
28 | CC(C)N(C(=O)c1ccc(Cl)cc1)c1cc(-c2ccccc2)sc1C(=O)O [Compound 210, 3-[(4-CHLORO-BENZOYL)-ISOPROPYL-AMINO]-5-PHENYL-THIOPHENE-2-CARBOXYLIC ACID] | > 5.30
29 | CC(C)N(C(=O)c1ccc(Cl)cc1O)c1cc(-c2ccccc2)sc1C(=O)O [Compound 313, 3-[(4-CHLORO-2-HYDROXY-BENZOYL)- ISOPROPYL-AMINO]-5-PHENYL- THIOPHENE-2-CARBOXYLIC ACID] | > 5.30
30 | O=C(O)c1sc(-c2ccccc2)cc1NC(=O)N1CCc2ccccc2C1 [Compound 180, 3-[(3,4-DIHYDRO-1H-ISOQUINOLINE-2-CARBONYL)-AMINO]-5-PHENYL-THIOPHENE-2-CARBOXYLIC ACID] | 4.70 to 5.30
31 | CC(C)=CCN(C(=O)c1ccc(C)cc1)c1cc(-c2ccccc2)sc1C(=O)O [Compound 300, 3-[(4-METHYL-BENZOYL)-(3-METHYL- BUT-ENYL)-AMINO]-5-PHENYL- THIOPHENE-2-CARBOXYLIC ACID] | 4.70 to 5.30
32 | Cc1ccc(C(=O)N(C)c2cc(-c3ccc(C#N)cc3)sc2C(=O)O)cc1 [Compound 193, 5-(4-CYANO-PHENYL)-3-[METHYL-(4-METHYL-BENZOYL)-AMINO]-THIOPHENE-2-CARBOXYLIC ACID] | 4.70 to 5.30
33 | Cc1c(-c2ccccc2)sc(C(=O)O)c1N(C(=O)c1ccc(Cl)cc1Cl)C(C)C [Compound 314, 3-[(2,4-DICHLORO-BENZOYL)- ISOPROPYL-AMINO]-4-METHYL-5- PHENYL-THIOPHENE-2-CARBOXYLIC ACID] | 4.70 to 5.30
34 | CC(=O)c1ccc(S(=O)(=O)Nc2cc(-c3ccccc3)sc2C(=O)O)cc1 [Compound 140, 3-(4-ACETYL-BENZENESULFONYLAMINO)-5-PHENYL-THIOPHENE-2-CARBOXYLIC ACID] | 4.70 to 5.30
35 | Cc1ccccc1S(=O)(=O)Nc1cc(-c2ccccc2)sc1C(=O)O [Compound 15, 5-PHENYL-3-(TOLUENE-2-SULFONYLAMINO)-THIOPHENE-2-CARBOXYLIC ACID] | < 4.70
36 | Cc1ccc(S(=O)(=O)Nc2cc(-c3ccc(C(N)=O)cc3)sc2C(=O)O)cc1 [Compound 259, 5-(4-CARBAMOYL-PHENYL)-3-(TOLUENE-4-SULFONYLAMINO)-THIOPHENE-2-CARBOXYLIC ACID] | > 5.30
37 | Cc1ccccc1S(=O)(=O)Nc1cc(-c2ccoc2)sc1C(=O)O [Compound 126, 5-FURAN-3-YL-3-(TOLUENE-2-SULFONYLAMINO)-THIOPHENE-2-CARBOXYLIC ACID] | > 5.30
38 | CN(C(=O)c1sccc1Cl)c1cc(-c2ccccc2)sc1C(=O)O [Compound 186, 3-[(3-CHLORO-THIOPHENE-2-CARBONYL)-METHYL-AMINO]-5-PHENYL-THIOPHENE-2-CARBOXYLIC ACID] | 4.70 to 5.30
